Reference: patent US11319341B2, “Immune-stimulating soluble doxorubicin-conjugated complex” (Yafei (Shanghai) Biopharmaceutical Co., Ltd., priority 2016, dated 2022)

What was measured:
tumor CD8+ T cells = experiment: CT26 tumor immune model: tumor CD8+ T cells (CD8 positive in CD45 positive cells, flow cytometry); assay type: in vivo, BALB/c mice; conditions: ratio of CD8 positive cells in CD45 positive cells in tumor, compounds 18 μmol/kg, PD-1 antibody 5 mg/kg
Description: (§3) 2) 5×10^5CT26 cancer cells were subcutaneously injected to the back of the nude mice. Mice were randomly grouped after the tumor reached at least 100 mm^3 Then treatment began and the day on which the treatment began was day 1.
3) Analysis on tumor CD8+ T cells. The tumor tissue was homogenated and individual cells in the tumor were filtered, separated and washed by buffer twice, then cultivated with the leucocyte common antigen CD45-PE and CD8-FITC marked antibodies for 1 hour at ambient temperature. The cells were washed by phosphate buffer containing 1% fetal bovine serum twice and then analyzed for the ratio of the T lymphocyte antigen (CD8) positive cells in the leucocyte common antigen (CD45) positive cells by flow cytometry.

CT26 tumor cells = experiment: CT26 tumor immune model: inhibition of tumor; assay type: in vivo; conditions: CT26 subcutaneous tumor, BALB/c mice, compounds 18 μmol/kg, mouse PD-1 antibody 5 mg/kg
Description: Test purpose: to investigate the anti-tumor efficacy of different compounds in CT26 cancer model for immune treatment.
1) CT26 tumor cells were purposed from ATCC. Cells were cultivated in DMEM culture solution containing 10% fetal bovine serum at 37° C. and 5% CO2. The cells were passaged for every three days and cells within the 15th passage were used.
as §3

HT1080 cells = experiment: Efficacy in HT1080 tumor model; assay type: in vivo; conditions: HT1080, nude mice, 18 umol/kg IV once weekly for 3 weeks
From the text: Test purpose: to investigate the anti-tumor efficacy of QHL-086, QHL-092, QHL-095, QHL-087, QHL-010, QHL-117 in mice model for tumor treatment.
Test drug: C3, QHL-086, QHL-092, QHL-095, QHL-087, QHL-010, QHL-117 injections and mitomycin injection, diluted to corresponding concentrations by physiological saline when testing.
(§1) 1. Animal: nude mice of 6-8 weeks old, all female.
1) HT1080 cells were purchased from American type culture collection (ATCC) and identified according the specification provided by ATCC.
(§2) 2) Production of tumor. […] Mice were randomly grouped after the tumor reached at least 100 mm^3. Then treatment began and the day on which the treatment began was day 1.
According to the clinical application of C3, QHL-086, QHL-092, QHL-095, QHL-087, QHL-010, QHL-117 were intravenously injected (IV). C3, QHL-086, QHL-092, QHL-095, QHL-087, QHL-010, QHL-117 were administered in a low and same dose of 18 umol/kg. The control group was administered by physiological saline. Drugs were administered once weekly for 3 weeks.

[1] = Tissue distribution of released doxorubicin in orthotopic transplantation CT26 tumor in liver; conditions: tissues at 1-72 hr, FIG. 2, FIG. 3
Description: Production of tumor model: CT26 tumor cells were purposed from ATCC. Cells were cultivated in DMEM culture solution containing 10% fetal bovine serum at 37° C. and 5% CO2. The cells were passaged for every three days and cells within the 15th passage were used.
5×10^5CT26 cancer cells were subcutaneously injected to the back of the nude mice. Mice were randomly grouped after the tumor reached 800-1000 mm^3. Then extract the tumor tissue and cleave to 100 mm3 tumor tissue block and orthotopic transplant into BALB/c mice liver. After 14 days, when orthotopic transplantation tumor grow up, 36 mice with orthotopic transplantation tumor for a group are treated with drug. Then collect the different tissue at 1, 6, 12, 24, 36, 72 hr to detect the concentration of releasing doxorubicin in different tissue.

[2] = test system: acidized human breast cancer (MDA-MB435) tumor tissue homogenates; experiment: Activation efficiency of the linker by tumor tissue homogenates (HPLC); assay type: biochemical; conditions: Table 4-1; 37° C., MDA-MB435 tumor tissue homogenates pH6.0, compound 1 mg/ml
Description: When the C selected AAN, The activation of different S-C-A linker and control linker was evaluated in the activation assay, The S-C-A conjugate was used to dissolve and they were diluted for ten times to a concentration of 0.1 mM/ml. At 37° C., sample compounds were added into 100 μg acidized human breast cancer (MDA-MB435) tumor tissue homogenates (pH6.0) in a concentration of 1 mg/ml. The enzyme in tumor tissue homogenates could release and detected by HPLC, thereby comparing the activation efficiency of the linker by the tumor tissue.

[3] = test system: Human liver cancer HepG2 cells; experiment: Efficacy on human liver cancer HepG2 cells in nude mice; assay type: in vivo; conditions: 54 umol/kg IV once weekly for four weeks
From the text: Test purpose: to investigate the anti-tumor efficacy of some compounds of the invention in mice model for tumor treatment.
Test drug: QHL-095, QHL-008, QHL-086, QHL-116, QHL-119, QHL-092, QHL-006, QHL-089, QHL-005, QHL-007, QHL-096, QHL-012, QHL-087, QHL-117, QHL-120, QHL-093, QHL-010, QHL-090, QHL-009, QHL-011 injections and control group injection, diluted to corresponding concentrations by physiological saline when testing.
as §1
1) Human liver cancer HepG2 cells were purchased from American type culture collection (ATCC) and identified according the specification provided by ATCC.
as §2
According to the clinical application of QHL-095, QHL-008, QHL-086, QHL-116, QHL-119, QHL-092, QHL-006, QHL-089, QHL-005, QHL-007, QHL-096, QHL-012, QHL-087, QHL-117, QHL-120, QHL-093, QHL-010, QHL-090, QHL-009, QHL-011, drugs were intravenously injected (IV). Compounds and control groups were administered in a dose of 54 umol/kg. The control group was administered by physiological saline. Drugs were administered once weekly for four weeks.

[4] = Water solubility of freeze-dried compounds in water (observation and HPLC)

## COc1cccc2c1C(=O)c1c(O)c3c(c(O)c1C2=O)C[C@@](O)(C(=O)CO)C[C@@H]3O[C@H]1C[C@H](NC(=O)[C@H](CC(C)C)NC(=O)[C@H](CC(N)=O)NC(=O)[C@H](C)NC(=O)[C@H](C)NC(=O)CCCCCN2C(=O)C=CC2=O)[C@H](O)[C@H](C)O1 [C3 EMC-AANL-DOX]
Tumor CD8+ T cells
  CD8:CD45 (%): 8.9%
CT26 tumor cells; Day 18 as printed
  inhibitory rate on tumor % Day 18: 66.9%
CT26 tumor cells; Day 28
  Size of tumor (mm^3) Day 28: 624.5 ± 313.6 mm^3
HT1080 cells
  Size of tumor (mm^3) Day 28: 138.3 ± 124.6 mm^3
  inhibitory rate on tumor Day 28: 92.1%
[1]
  active doxorubicin tissue distribution, in words: major in orthotopic tumor in liver
[2]
  Activation (%): 56.4%
[3]
  Size of tumor (mm^3) Day 28: 218.3 ± 167.7 mm^3
  inhibitory rate on tumor Day 28: 92.5%
[4]
  solubility: < 5000 µg/mL
